Assay results as given in patent US10632181B2, “Composition, containing RGD motif-containing peptide or fragment thereof, for treating burns and glaucoma, alleviating skin wrinkles, and promoting hair growth” (HUONS CO., LTD., priority 2014, dated 2020).

Columns and labels:
Assay type in all cases: in vivo, Women aged 30-65
wrinkles around eyes [1] = assay: Wrinkle extent around eyes by 3D imaging (PRIMOS Premium); settings: for Rmax numerical value (maximum height of wrinkle profile) / Rp numerical value (maximum profile peak height) / Rv numerical value (maximum profile valley depth): in µm (unit assumed)
Description: Furthermore, the wrinkle extent was measured by 3D imaging. A target site to measure the wrinkle extent was regions around the eyes of the subjects, and the right side of the face was set as a measurement site. To measure the wrinkle extent, the subjects were allowed to wash the measurement site with water, and take a rest for 30 minutes in the waiting room under constant temperature constant humidity conditions of indoor temperature 20-25° C. and humidity 40-60% to acclimate the skin surface temperature and humidity to the environment of the measurement space, and were not permitted to drink water during the rest. For objective measurement, measurements were performed by one researcher, and the same site was measured at each time of the first visit before use and the second and third visits in 2 and 4 weeks after use. Before use and in 2 and 4 weeks after use, images of the site to which the test product (HU022 (SEQ ID NO:1)) was applied were formed using 3D skin imaging machine (PRIMOS Premium), and to verify if there is any difference in each of control group and experimental group in 4 weeks after use, wrinkle parameters, Ra, Rmax, Rt, Rp, Rv values, in the stored images of 2 weeks and 4 weeks after use relative to before use were analyzed.

wrinkles around eyes [2] = assay: Survey of subjects about wrinkle reduction effectiveness
Description: Furthermore, surveying the subjects about effectiveness was conducted. The subjects were asked to personally make responses about the extent to which the subjects felt that wrinkles reduced after use of test product using 5 levels: better (4), a little bit better (3), no change (2), a little bit worse (1), worse (0). The researcher determined if test product has efficacy by calculating the percentage of the number of subjects for each response.

wrinkles around eyes [3] = assay: Wrinkle extent around eyes, skin replica, Visiometer SV600; design: R3 numerical value (average roughness) / R1 numerical value (skin roughness) / R4 numerical value (smoothness depth) / R5 numerical value (arithmetic average roughness): unit not given here
Description: The extent of wrinkles around eyes was measured using equipment. A target site to measure the wrinkle extent was regions around the eyes of the subjects, and the left side and the right side of the face were set as a measurement site. To measure the wrinkle extent, the subjects were allowed to wash the measurement site with water, and take a rest for 30 minutes in the waiting room under constant temperature and constant humidity conditions of indoor temperature 20-25° C. and humidity 40-60% to acclimate the skin surface temperature and humidity to the environment of the measurement space, and were not permitted to drink water during the rest. For objective measurement, measurements were performed by one researcher, and the same site was measured at each time of the first visit before use and the second and third visits in 2 and 4 weeks after use. Transparency profilometry analysis was performed using Visiometer SV600 (Courage-Khazaka electronic GmbH, Germany) on skin replica of the site to which test product and control product were applied before use and 2 and 4 weeks after use, and to identify if there is any difference in each of control group and experimental group after use, a change (%) in R1, R2, R4, R5 measurement values in 2 and 4 weeks after use relative to before use was analyzed.

wrinkles around eyes [4] = assay: Expert visual assessment of wrinkles (global photodamage score); settings: for expert visual assessment score: severity 0-7
Description: Furthermore, visual assessment was performed. At each visit before and after use, experts assessed the wrinkle extent by scoring using global photodamage score (Br J Dermatol. 2010; 162(3):497-502). To verify if there is any difference in each of control group and experimental group in 4 weeks after use, a change (%) in visual assessment scores of 2 weeks and 4 weeks after use relative to before use was analyzed. The visual assessment scores are as follows (Table 18): […]

wrinkles around eyes [5] = assay: Wrinkle extent around eyes, skin replica, Visiometer SV600; design: R3 numerical value (average roughness): unit not given here; settings: Before use
[6] = response 2 (fair), 4 weeks after use
[7] = response 3 (good), 4 weeks after use

Q: What does the source list for “HU022: polypeptide consisting of 452nd-509th amino acids of ADAM 15 (GenBank AAH14566.1), 58 amino acids; commercial product (EYEGENE Inc.)”?
A: Ra numerical value (roughness average of wrinkle profile) (wrinkles around eyes [1]; 2 weeks after use, twice daily): 18.20 ± 3.94; Rt numerical value (distance between highest peak and lowest valley) (wrinkles around eyes [1]; 2 weeks after use, twice daily): 187.85 ± 34.10; Rmax numerical value (maximum height of wrinkle profile) (wrinkles around eyes [1]; 2 weeks after use, twice daily): 168.83 ± 29.61; Rp numerical value (maximum profile peak height) (wrinkles around eyes [1]; 2 weeks after use, twice daily): 116.47 ± 35.75; Rv numerical value (maximum profile valley depth) (wrinkles around eyes [1]; 2 weeks after use, twice daily): 71.38 ± 16.44; Ra numerical value (roughness average of wrinkle profile) (wrinkles around eyes [1]; 4 weeks after use, twice daily): 17.00 ± 3.88; Rt numerical value (distance between highest peak and lowest valley) (wrinkles around eyes [1]; 4 weeks after use, twice daily): 184.63 ± 36.83; Rmax numerical value (maximum height of wrinkle profile) (wrinkles around eyes [1]; 4 weeks after use, twice daily): 168.80 ± 33.21; Rp numerical value (maximum profile peak height) (wrinkles around eyes [1]; 4 weeks after use, twice daily): 121.88 ± 38.06; Rv numerical value (maximum profile valley depth) (wrinkles around eyes [1]; 4 weeks after use, twice daily): 62.75 ± 11.92; Ra numerical value (roughness average of wrinkle profile) (wrinkles around eyes [1]; Before use): 19.19 ± 4.27; Rt numerical value (distance between highest peak and lowest valley) (wrinkles around eyes [1]; Before use): 195.05 ± 31.31; Change(%) in Ra (wrinkles around eyes [1]; Before use-2 weeks after use): −5.15%; Change(%) in Rmax (wrinkles around eyes [1]; Before use-2 weeks after use): −4.23%; Change(%) in Rp (wrinkles around eyes [1]; Before use-2 weeks after use): −5.10%; Change(%) in Rt (wrinkles around eyes [1]; Before use-2 weeks after use): −3.69%; Change(%) in Rv (wrinkles around eyes [1]; Before use-2 weeks after use): −1.30%; Change(%) in Ra (wrinkles around eyes [1]; Before use-4 weeks after use): −11.42%; Change(%) in Rmax (wrinkles around eyes [1]; Before use-4 weeks after use): −4.25%; Change(%) in Rp (wrinkles around eyes [1]; Before use-4 weeks after use): −0.70%; Change(%) in Rt (wrinkles around eyes [1]; Before use-4 weeks after use): −5.35%; Change(%) in Rv (wrinkles around eyes [1]; Before use-4 weeks after use): −13.24%; Rmax numerical value (maximum height of wrinkle profile) (wrinkles around eyes [1]; Before use): 176.29 ± 27.79; Rp numerical value (maximum profile peak height) (wrinkles around eyes [1]; Before use): 122.73 ± 31.55; Rv numerical value (maximum profile valley depth) (wrinkles around eyes [1]; Before use): 72.32 ± 17.16; Number of subjects, wrinkle reduction survey (wrinkles around eyes [2]; response 0 (very bad), 4 weeks after use): 0; Number of subjects, wrinkle reduction survey (wrinkles around eyes [2]; response 1 (bad), 4 weeks after use): 0; Number of subjects, wrinkle reduction survey (wrinkles around eyes [2]; [6]): 1; Percentage of subjects, wrinkle reduction survey (wrinkles around eyes [2]; [6]): (16.7) %; Number of subjects, wrinkle reduction survey (wrinkles around eyes [2]; [7]): 5; Percentage of subjects, wrinkle reduction survey (wrinkles around eyes [2]; [7]): (83.3) %; Number of subjects, wrinkle reduction survey (wrinkles around eyes [2]; response 4 (very good), 4 weeks after use): 0; Mean of wrinkle reduction survey response (wrinkles around eyes [2]; scale 0-4, 4 weeks after use): 2.83; survey assessment about wrinkle reduction, test product versus control product (wrinkles around eyes [2]; third visit, 4 weeks after use): test product was better at reducing wrinkles than control product; R1 numerical value (skin roughness) (wrinkles around eyes [3]; 2 weeks after use, twice daily): 54.59 ± 10.99; R2 numerical value (maximum roughness) (wrinkles around eyes [3]; 2 weeks after use, twice daily): 36.87 ± 6.02; R3 numerical value (average roughness) (wrinkles around eyes [3]; 2 weeks after use, twice daily): 24.41 ± 4.16; R4 numerical value (smoothness depth) (wrinkles around eyes [3]; 2 weeks after use, twice daily): 23.64 ± 5.11; R5 numerical value (arithmetic average roughness) (wrinkles around eyes [3]; 2 weeks after use, twice daily): 9.44 ± 2.44; R1 numerical value (skin roughness) (wrinkles around eyes [3]; 4 weeks after use, twice daily): 51.06 ± 19.28; R2 numerical value (maximum roughness) (wrinkles around eyes [3]; 4 weeks after use, twice daily): 29.16 ± 5.12; R3 numerical value (average roughness) (wrinkles around eyes [3]; 4 weeks after use, twice daily): 18.62 ± 2.79; R4 numerical value (smoothness depth) (wrinkles around eyes [3]; 4 weeks after use, twice daily): 22.94 ± 10.03; R5 numerical value (arithmetic average roughness) (wrinkles around eyes [3]; 4 weeks after use, twice daily): 10.10 ± 5.97; R1 numerical value (skin roughness) (wrinkles around eyes [3]; Before use): 76.23 ± 12.15; R2 numerical value (maximum roughness) (wrinkles around eyes [3]; Before use): 54.26 ± 5.70; R4 numerical value (smoothness depth) (wrinkles around eyes [3]; Before use): 30.41 ± 7.01; R5 numerical value (arithmetic average roughness) (wrinkles around eyes [3]; Before use): 13.57 ± 3.65; Change(%) in R1 (wrinkles around eyes [3]; Before use-2 weeks after use): −28.38%; Change(%) in R4 (wrinkles around eyes [3]; Before use-2 weeks after use): −22.27%; Change(%) in R5 (wrinkles around eyes [3]; Before use-2 weeks after use): −30.43%; Change(%) in R1 (wrinkles around eyes [3]; Before use-4 weeks after use): −33.02%; Change(%) in R3 (wrinkles around eyes [3]; Before use-4 weeks after use): −45.62%; Change(%) in R4 (wrinkles around eyes [3]; Before use-4 weeks after use): −24.57%; Change(%) in R5 (wrinkles around eyes [3]; Before use-4 weeks after use): −26.52%; expert visual assessment score (wrinkles around eyes [4]; 2 weeks after use): 2.17 ± 0.75; expert visual assessment score (wrinkles around eyes [4]; 4 weeks after use): 1.67 ± 1.03; expert visual assessment score (wrinkles around eyes [4]; Before use): 2.17 ± 0.75; Change(%) in expert visual assessment score (wrinkles around eyes [4]; Before use-2 weeks after use): 0%; Change(%) in expert visual assessment score (wrinkles around eyes [4]; Before use-4 weeks after use): −23.08%; R3 numerical value (average roughness) (wrinkles around eyes [5]): 34.24 ± 3.51
